Like-named read-outs stand apart in the source and are kept apart here.
Legend:
[1] = target: GDP-bound NRAS wild-type protein (Homo sapiens, UniProt P01111); test: Binding to NRAS by surface plasmon resonance (SPR), KD and KD ratio to KRAS
Procedure, shortened: (§1)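 Affinity is measured by surface plasmon resonance at 30°C against captured, GDP-loaded RAS carrying a biotinylated Avi tag. Compounds are titrated by single-cycle kinetics, and KD comes from a 1:1 fit.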

HRAS wild-type protein = HRAS wild-type protein (Homo sapiens, UniProt P01112); test: Binding to HRAS by surface plasmon resonance (SPR), KD and KD ratio to KRAS
Procedure, shortened: as §1

[2] = target: GDP-bound KRAS wild-type protein (Homo sapiens, UniProt P01116); test: Binding to KRAS by surface plasmon resonance (SPR), dissociation constant KD
Procedure, shortened: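 Recombinant RAS proteins bearing a biotinylated Avi tag and loaded with GDP served as the captured ligand, recaptured fresh every cycle. Binding responses were referenced to an uncoated surface and a buffer-only blank cycle. Dissociation constants were obtained by 1:1 model fitting at 30°C.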

[3] = tested on: human lung cancer strain NCI-H441; test: NCI-H441 cell proliferation inhibitory activity (CellTiter-Glo, 4 days); type: cell-based; conditions: read-out: NCl-H441 IC50
Procedure, shortened: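 Readout: […] after the ATP-based reagent. Compound: serial dilutions in dimethyl sulfoxide.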

[4] = ratio of KD for GDP-bound NRAS wild-type protein to KD for KRAS
[5] = ratio of KD for HRAS wild-type protein to KD for KRAS
[6] = ratio of KD with respect to GDP-bound NRAS wild-type protein to KD with respect to KRAS
[7] = ratio of KD with respect to HRAS wild-type protein to KD with respect to KRAS
[8] = Single Cycle Kinetics, 1:1 binding model
[9] = 50% proliferation inhibitory concentration, four days

Sequence of HRAS wild-type protein (P01112 whole entry): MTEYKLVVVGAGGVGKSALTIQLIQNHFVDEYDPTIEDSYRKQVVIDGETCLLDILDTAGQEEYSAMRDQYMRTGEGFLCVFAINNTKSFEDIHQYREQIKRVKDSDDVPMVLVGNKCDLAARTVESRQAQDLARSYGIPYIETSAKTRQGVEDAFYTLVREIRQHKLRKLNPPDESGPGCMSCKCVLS
Sequence of GDP-bound KRAS wild-type protein (P01116 1-188 isoform P01116-2): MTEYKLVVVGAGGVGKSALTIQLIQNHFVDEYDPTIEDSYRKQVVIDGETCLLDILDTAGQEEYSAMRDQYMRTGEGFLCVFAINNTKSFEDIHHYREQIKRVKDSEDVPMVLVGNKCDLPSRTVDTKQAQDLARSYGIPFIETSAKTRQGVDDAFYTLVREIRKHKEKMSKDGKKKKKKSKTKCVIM
Sequence of GDP-bound NRAS wild-type protein (P01111 whole entry): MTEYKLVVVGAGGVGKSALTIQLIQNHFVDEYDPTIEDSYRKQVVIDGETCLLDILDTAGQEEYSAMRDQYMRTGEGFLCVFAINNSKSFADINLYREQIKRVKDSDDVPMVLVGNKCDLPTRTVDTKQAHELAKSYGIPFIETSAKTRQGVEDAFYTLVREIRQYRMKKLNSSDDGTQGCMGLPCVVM

SMILES | NRAS /KRAS [1, 4] | HRAS /KRAS (HRAS wild-type protein; [5]) | Kd ([2]; 1:1 binding model) | IC50 ([3]; NCI-H441 cells, 4 days) | Kd ([2]; Single Cycle Kinetics) | NRAS /KRAS [1, 6] | HRAS /KRAS (HRAS wild-type protein; [7]) | Kd [2, 8] | IC50 [3, 9]
CCCOC[C@H]1C(=O)N[C@@H]([C@@H](C)CC)C(=O)N(C)CC(=O)N(C)[C@H]2C/C=C\CCN(C2=O)[C@@H](Cc2ccc(C)cc2)C(=O)N(C)CC(=O)N[C@@H](CCc2cc(F)c(C(F)(F)F)c(F)c2)C(=O)N2C[C@@H](C)C[C@H]2C(=O)NC2(CC(C)(C)C2)C(=O)N(C)[C@@H](C2CCCC2)C(=O)N(C)[C@H](C(=O)N(C)CC)CC(=O)N1C [PP2471] | A (a compound having 10 or more and less than 20 is denoted as A) | A (a compound having 10 or more and less than 20 is denoted as A) | 0.16 nM | 15.3 nM |  |  |  |  | 
CCC[C@H]1C(=O)N[C@@H]([C@@H](C)CC)C(=O)N2CCC[C@H]2C(=O)N(C)[C@H]2C/C(F)=C\CCN(C2=O)[C@@H](Cc2ccc(C(F)(F)F)cc2)C(=O)N(C)CC(=O)N[C@@H](CCc2ccc(C(F)(F)F)c(OC)c2)C(=O)N2C[C@H](OCC)C[C@H]2C(=O)N(C)C2(CCC2)C(=O)N(C)[C@@H](C2CCCC2)C(=O)N(C)[C@H](C(=O)N(C)C)CC(=O)N1C [PP3509] | B (a compound having 3 or more and less than 10 is denoted as B) | B (a compound having 3 or more and less than 10 is denoted as B) |  | 9.4 nM | 0.41 nM |  |  |  | 
CCC[C@H]1C(=O)N[C@@H]([C@@H](C)CC)C(=O)N(C)CC(=O)N(C)[C@H]2C/C=C\CCN(C2=O)[C@@H](Cc2ccc(C)cc2)C(=O)N(C)CC(=O)N[C@@H](CCc2ccc(Cl)c(Cl)c2)C(=O)N2C[C@H](OCC)C[C@H]2C(=O)NC2(CC(C)(C)C2)C(=O)N(C)[C@@H](CC(C)(C)C)C(=O)N(C)[C@H](C(=O)N(C)C)CC(=O)N1C [PP2714] | A (a compound having 10 or more and less than 20 is denoted as A) | A (a compound having 10 or more and less than 20 is denoted as A) | 0.25 nM | 13.2 nM |  |  |  |  | 
CC[C@H](C)[C@@H]1NC(=O)[C@H](COC)N(C)C(=O)C[C@@H](C(=O)N(C)C)N(C)C(=O)[C@H](C2CCCC2)N(C)C(=O)C2(CC(C)(C)C2)NC(=O)[C@@H]2C[C@@H](OC(C)C)CN2C(=O)[C@H](CCc2cc(F)c(C(F)(F)F)c(F)c2)NC(=O)CN(C)C(=O)[C@H](CC2CCCCC2)N2CC/C=C\C[C@@H](C2=O)N(C)C(=O)CN(C2CC2)C1=O [PP2511] | A (a compound having 10 or more and less than 20 is denoted as A) | A (a compound having 10 or more and less than 20 is denoted as A) | 0.95 nM | 107 nM |  |  |  |  | 
CCC[C@H]1C(=O)N[C@@H]([C@@H](C)CC)C(=O)N(C)CC(=O)N(C)[C@H]2C/C=C\CCN(C2=O)[C@@H](Cc2ccc(C(F)(F)F)cc2)C(=O)N(C)CC(=O)N[C@@H](CCc2ccc(C(F)(F)F)c(OC)c2)C(=O)N2CC3(CC3)C[C@H]2C(=O)N(C)C2(CCC2)C(=O)N(C)[C@@H]([C@@H](C)CC)C(=O)N(C)[C@H](C(=O)N(C)C)CC(=O)N1C [PP3291] | A (a compound having 10 or more and less than 20 is denoted as A) | B (a compound having 3 or more and less than 10 is denoted as B) |  | 3.7 nM | 0.85 nM |  |  |  | 
CC[C@H](C)[C@@H]1NC(=O)[C@H](CC)N(C)C(=O)C[C@@H](C(=O)N(C)C)N(C)C(=O)[C@H](C2CCCC2)N(C)C(=O)C2(CCC2)NC(=O)[C@@H]2CCCN2C(=O)[C@H](CCc2cc(F)c(C(F)(F)F)c(F)c2)NC(=O)CN(C)C(=O)[C@H](Cc2ccc(C(F)(F)F)cc2)N2CC/C=C\C[C@@H](C2=O)N(C)C(=O)CN(C)C1=O [PP1135] |  |  |  |  |  | A (a compound having 10 or more and less than 20 is denoted as A) | A (a compound having 10 or more and less than 20 is denoted as A) | 0.094 nM | 43.9 nM
CCCC[C@@H]1NC(=O)C[C@@H](C(=O)N(C)C)N(C)C(=O)[C@H](C2CCCC2)N(C)C(=O)C2(CC(C)(C)C2)NC(=O)[C@@H]2C[C@@H](OCC)CN2C(=O)[C@H](CCc2cc(F)c(C(F)(F)F)c(F)c2)NC(=O)CN(C)C(=O)[C@H](Cc2ccc(C(F)(F)F)cc2)N2CC/C=C\C[C@@H](C2=O)N(C)C(=O)CN(C)C(=O)[C@H]([C@@H](C)CC)NC1=O [PP3456] | A (a compound having 10 or more and less than 20 is denoted as A) | A (a compound having 10 or more and less than 20 is denoted as A) |  | 16.4 nM | 0.2 nM |  |  |  | 
CCC[C@H]1C(=O)N[C@@H]([C@@H](C)CC)C(=O)N2CCC[C@H]2C(=O)N(C)[C@H]2C/C=C\CCN(C2=O)[C@@H](Cc2ccc(C)cc2)C(=O)N(C)CC(=O)N[C@@H](CCc2ccc(C(F)(F)F)c(OC)c2)C(=O)N2CC[C@H](OC)[C@H]2C(=O)N(C)C2(CCC2)C(=O)N(C)[C@@H](C2CCCC2)C(=O)N(C)[C@H](C(=O)N(C)C)CC(=O)N1C [PP3247] | A (a compound having 10 or more and less than 20 is denoted as A) | B (a compound having 3 or more and less than 10 is denoted as B) |  | 5.3 nM | 0.22 nM |  |  |  | 
CCO[C@@H]1C[C@H]2C(=O)NC3(CCC3)C(=O)N(C)[C@@H](C(CC)CC)C(=O)N(C)[C@H](C(=O)N3CCCC3)CC(=O)N(C)[C@@H](C)C(=O)N[C@@H]([C@@H](C)CC)C(=O)N(C)CC(=O)N(C)[C@H]3C/C=C\CCN(C3=O)[C@@H](CC3CCC(F)(F)CC3)C(=O)N(C)CC(=O)N[C@@H](CCc3cc(F)c(C(F)(F)F)c(F)c3)C(=O)N2C1 [PP1436] |  |  |  |  |  | AA (a compound having 20 or more is denoted as AA) | A (a compound having 10 or more and less than 20 is denoted as A) | 0.29 nM | 47.4 nM
CCO[C@@H]1C[C@H]2C(=O)NC3(CCCC3)C(=O)N(C)[C@@H](C3CCCC3)C(=O)N(C)[C@H](C(=O)N(C)C)CC(=O)N(C)[C@@H](CC)C(=O)N[C@@H]([C@@H](C)CC)C(=O)N(C)CC(=O)N(C)[C@H]3C[C@@H](C)[C@@H](C)CN(C3=O)[C@@H](Cc3ccc(C(F)(F)F)cc3)C(=O)N(C)CC(=O)N[C@@H](CCc3cc(F)c(C(F)(F)F)c(F)c3)C(=O)N2C1 [PP1352] |  |  |  |  |  | A (a compound having 10 or more and less than 20 is denoted as A) | B (a compound having 3 or more and less than 10 is denoted as B) | 0.024 nM | 4.6 nM
CCCO[C@H](C)[C@@H]1NC(=O)[C@H](CC(C)C)N(C)C(=O)C[C@@H](C(=O)N(C)C)N(C)C(=O)[C@H](C2CCCC2)N(C)C(=O)C2(CC(C)(C)C2)NC(=O)[C@@H]2C[C@H](C)CN2C(=O)[C@H](CCc2ccc(C(F)(F)F)c(OC)c2)NC(=O)CN(C)C(=O)[C@H](Cc2ccc(C)cc2)N2CC/C=C\C[C@@H](C2=O)N(C)C(=O)CN(C)C1=O [PP2415] | AA (a compound having 20 or more is denoted as AA) | A (a compound having 10 or more and less than 20 is denoted as A) | 0.093 nM | 10.3 nM |  |  |  |  | 
CCO[C@@H]1C[C@H]2C(=O)NC3(CCC3)C(=O)N(C)[C@@H](C(CC)CC)C(=O)N(C)[C@H](C(=O)N(C)C)CC(=O)N(C)[C@@H](C)C(=O)N[C@@H]([C@@H](C)CC)C(=O)N(C)CC(=O)N(C)[C@H]3C/C=C\CCN(C3=O)[C@@H](Cc3ccc(C(F)(F)F)cc3)C(=O)N(C)CC(=O)N[C@@H](CCc3ccc4sccc4c3)C(=O)N2C1 [PP1222] |  |  |  |  |  | A (a compound having 10 or more and less than 20 is denoted as A) | A (a compound having 10 or more and less than 20 is denoted as A) | 1.2 nM | 301 nM
CCC[C@H]1C(=O)N[C@@H]([C@@H](C)CC)C(=O)N(C)CC(=O)N(C)[C@H]2C/C=C\CCN(C2=O)[C@@H](Cc2ccc(C(F)(F)F)cc2)C(=O)N(C)CC(=O)N[C@@H](CCc2ccc(C(F)(F)F)c(Cl)c2)C(=O)N2CC3(CC3)C[C@H]2C(=O)NC2(CCC2)C(=O)N(C)[C@@H]([C@@H](C)CC)C(=O)N(C)[C@H](C(=O)N(C)C)CC(=O)N1C [PP3416] | AA (a compound having 20 or more is denoted as AA) | A (a compound having 10 or more and less than 20 is denoted as A) |  | 12.9 nM | 0.25 nM |  |  |  | 
C=CCN1CC(=O)N(C)[C@H]2C/C=C\CCN(C2=O)[C@@H](Cc2ccc(C(F)F)cc2)C(=O)N(C)CC(=O)N[C@@H](CCc2cc(F)c(C(F)(F)F)c(F)c2)C(=O)N2C[C@H](OC(C)C)C[C@H]2C(=O)N(C)C2(CCC2)C(=O)N(C)[C@@H](C(CC)CC)C(=O)N(C)[C@H](C(=O)N(C)C)CC(=O)N(C)[C@@H](COCCC)C(=O)N[C@@H]([C@@H](C)OCCC)C1=O [PP3486] | A (a compound having 10 or more and less than 20 is denoted as A) | A (a compound having 10 or more and less than 20 is denoted as A) |  | 12.6 nM | 0.61 nM |  |  |  | 

Source: patent EP4603105A1, “PHARMACEUTICAL COMPOSITION CONTAINING CYCLIC COMPOUND HAVING SELECTIVE KRAS INHIBITORY EFFECT AGAINST HRAS AND NRAS” (CHUGAI SEIYAKU KABUSHIKI KAISHA, priority 2022, dated 2024)
